Broadly, the IC50 is the concentration that gives 50% inhibition. What is called MIC is the lowest concentration that inhibits growth of the organism. The EC50 is the concentration at which the effect is half-maximal.

Results on 25 compounds are retold here after ChEMBL document CHEMBL6074642, “Natural and Bioinspired Lipidic Alkynylcarbinols as Leishmanicidal, Antiplasmodial, Trypanocidal, Fungicidal, Antibacterial, and Antimycobacterial Agents” (J Nat Prod, 2024).

The test system of experiment [1] is Leishmania donovani. In words: Antileishmanial activity against amastigote form of Leishmania donovani infected in BALB/c mouse assessed as inhibition of parasite growth in liver at 10 mg/kg, po measured for 7 days by geimsa staining based analysis relative to control. In kind it is functional. Further details: scale not given: the % may be the effect or the level left. The settings on record: time 7 day.

Experiment [2] deals with Leishmania donovani. In words: Antileishmanial activity against Leishmania donovani amastigotes infected in J774 macrophage assessed as inhibition of parasite growth incubated for 48 hrs by luciferase assay. It counts as functional, organism-based. As to conditions: J774, 48 h.
The subject of experiment [3] is Mycolicibacterium smegmatis. In words: Antimycobacterial activity against Mycobacterium smegmatis mc2 155 assessed as reduction in bacterial growth. In kind it is functional.
Experiment [4] concerns Mycobacterium tuberculosis. In words: Antibacterial activity against Mycobacterium tuberculosis H37Ra assessed as reduction in bacterial growth incubated for 14 days by CLSI protocol based method. It counts as functional. The settings on record: 336 h, time 14 day.
Another experiment relates to Candida albicans. In words: Antifungal activity against Candida albicans ATCC 10231 assessed as fungal growth inhibition. It counts as functional.
Experiment [5] concerns Mycobacterium tuberculosis. In words: Antimycobacterial activity against Mycobacterium tuberculosis H37Ra ATCC 25177 assessed as reduction in bacterial growth after 7 days by resazurin microtiter assay. In kind it is functional. As to conditions: H37Ra ATCC 25177, 168 h, time 7 day. (In general: The colour change of resazurin is a common sign of viable cells or microbes.)

The next experiment has as its system Plasmodium falciparum. In words: Antiplasmodial activity against Plasmodium falciparum assessed as parasite growth inhibition. In kind it is functional, organism-based.
The subject of the next experiment is Streptococcus pyogenes. In words: Antibacterial activity against Streptococcus pyogenes assessed as bacterial growth inhibition. In kind it is functional.
Another experiment concerns Enterococcus faecalis. In words: Antibacterial activity against Enterococcus faecalis. In kind it is functional.
The test system of experiment [6] is Bacillus subtilis. In words: Antibacterial activity against Bacillus subtilis. It counts as functional.
Experiment [7] relates to Mycobacterium intracellulare. In words: Antibacterial activity against Mycobacterium intracellulare. In kind it is functional, organism-based.
The subject of a further experiment is Pseudomonas aeruginosa. In words: Antibacterial activity against Pseudomonas aeruginosa assessed as reduction in bacterial growth incubated for 24 hrs by broth microdilution method. In kind it is functional, organism-based. A general note: Dilution methods test growth across graded concentrations, often in twofold steps.
In a further experiment the test system is Phytophthora capsici. In words: Antifungal activity against Phytophthora capsici. It counts as functional, organism-based.
Experiment [8] has as its system Mycobacteroides abscessus. In words: Antimycobacterial activity against Mycobacterium abscessus ATCC 19977. It counts as functional.
The test system of another experiment is Mycolicibacterium phlei. In words: Antimycobacterial activity against Mycobacterium phlei ATCC 11758. In kind it is functional.
The next experiment deals with Mycolicibacterium aurum. In words: Antimycobacterial activity against Mycobacterium aurum. In kind it is functional.
Experiment [9] concerns Mycolicibacterium fortuitum. In words: Antimycobacterial activity against Mycobacterium fortuitum ATCC 6841 assessed as bacterial growth inhibition incubated for 72 hrs by resazurin dye based broth microdilution method. In kind it is functional.
The subject of experiment [10] is Mycolicibacterium smegmatis. In words: Antimycobacterial activity against Mycobacterium smegmatis ATCC 14468. It counts as functional.
Experiment [11] deals with Mycobacterium tuberculosis. In words: Antimycobacterial activity against Mycobacterium tuberculosis H37Rv assessed as inhibition of bacterial growth by MABA assay. In kind it is functional.
The test system of experiment [12] is Mycobacterium tuberculosis. In words: Antimycobacterial activity against Mycobacterium tuberculosis Erdman assessed as inhibition of bacterial growth by MABA assay. In kind it is functional.
In experiment [13] the test system is Bacillus subtilis. In words: Antibacterial activity against Bacillus subtilis PY79 assessed as reduction in bacterial growth. In kind it is functional, organism-based.
A further experiment concerns Bipolaris sorokiniana. In words: Antifungal activity against Cochliobolus sativus. It counts as functional, organism-based.
Experiment [14] has as its system Staphylococcus aureus. In words: Antimicrobial activity against methicillin-resistant Staphylococcus aureus assessed as reduction in microbial growth after 24 to 48 hrs by microdilution susceptibility test. In kind it is functional. As to conditions: time 24-48 hrs.
The test system of experiment [15] is Staphylococcus aureus. In words: Antibacterial activity against Staphylococcus aureus assessed as reduction in microbial growth by CLSI based broth microdilution method. In kind it is functional.
Experiment [16] deals with Mycobacterium tuberculosis. In words: Antimycobacterial activity against Mycobacterium tuberculosis H37Rv. It counts as functional.
Experiment [17] relates to Mycobacterium tuberculosis. In words: Antimycobacterial activity against Mycobacterium tuberculosis Erdman. It counts as functional.

The structures appear in SMILES notation. In brackets after ≈: the same amount, converted by molar mass. A value given as a limit tells only on which side of the number the result lay.

`C=C[C@@H](C#CC#C[C@@H](CCCCCCCCC)NC(=O)c1ccccc1)OC(C)=O`: the Activity in the experiment on Leishmania donovani [1] turned out to be 26%. In addition, the IC50 in the experiment with Leishmania donovani [2] is 30 nM.

Turning to `C=C[C@@H](O)C#CC#CC[C@H]1O[C@H]1CCCCCCC`, the MIC in experiment [3] turned out to be 25 µg/mL (≈ 96 µM); in [4], 6.13 µg/mL (≈ 23.5 µM).

Regarding `CCCCCCC/C=C\[C@H](O)C#CC#C[C@@H](O)CC` [OPLOPANDIOL], in the experiment with Candida albicans, the MIC came out at 12 µg/mL (≈ 45.7 µM).

On to `CCCC/C=C/C#CC#CCCCCCCCC(=O)O` [EXOCARPIC ACID], for which the MIC in experiment [5] was found to be 20 µg/mL (≈ 72.9 µM).

With `C=C[C@@H](C#CC#C[C@H](O)CCCCCCCCC)OC(C)=O`, the IC50 in the experiment with Plasmodium falciparum turned out to be 0.341 µg/mL (≈ 1.12 µM); in the experiment with Leishmania donovani [2], 630 nM. For the same compound, the MIC was 8 µM (≈ 2.44 µg/mL) in the experiment with Streptococcus pyogenes, 32 µM (≈ 9.74 µg/mL) against Enterococcus faecalis and 8 µM (≈ 2.44 µg/mL) against Bacillus subtilis [6].

For `CCCCCCCCCCCCC1CC1CCCC(O)C#CC#CCO` (stereo unspecified), the values for the IC50 (in [7]; with Pseudomonas aeruginosa) were 14000 nM and 1800 nM, respectively.

Turning to `C=C[C@H](O)C#CC#C[C@H](O)c1cccs1`, in the experiment on Phytophthora capsici, a half-maximal response (EC50) required 2.7 µg/mL (≈ 12.4 µM).

Take `C=C[C@H](O)C#CC#CC(O)/C=C\CCCCCCC` (stereo partly specified): the MIC in experiment [8] came to 2 µg/mL (≈ 7.68 µM); against Mycolicibacterium phlei it was 2 µg/mL (≈ 7.68 µM); in the experiment with Mycolicibacterium aurum it was 4 µg/mL (≈ 15.4 µM); in experiment [9], 4 µg/mL (≈ 15.4 µM); in experiment [10], 4 µg/mL (≈ 15.4 µM).

On to `C=CC(O)C#CC#CC(O)C1OC1CCCCCCC` (stereo unspecified), for which the MIC in experiment [11] and in experiment [12] was over 60 µg/mL in each case.

In the case of `CC(C)CCCC/C=C\CCCCCCCCC[C@@H](O)C#CC#CCO`, the IC50 stood at 9900 nM in [7] and 1700 nM in the experiment with Pseudomonas aeruginosa.

As for `C#CC(O)/C=C/C(O)CCCC(O)CC#CC(O)C#CCCCCC(=O)CCCCC/C=C/C(O)CCCCCCCCCCCCC(O)C(O)C(O)C#CC(=O)O` (stereo unspecified), the IC50 in the experiment on Bacillus subtilis [13] came to 12 µg/mL (≈ 14.8 µM).

The compound `C=C[C@H](O)C#CC#C[C@@H](O)c1cccs1` returned an EC50 with Phytophthora capsici of 3.6 µg/mL (≈ 16.5 µM).

Regarding `C=C[C@@H](C#CC#C[C@@H](CCCCCCCCC)NS(C)(=O)=O)OC(C)=O`, the MIC in the experiment on Streptococcus pyogenes was 8 µM (≈ 3.05 µg/mL); in the experiment with Bacillus subtilis [6] it was 4 µM (≈ 1.53 µg/mL). Further, the IC50 with Leishmania donovani [2] came out at 50 nM.

Turning to `CCCCCC/C=C\CCCCCCCCC[C@@H](O)C#CC#CCO`, the results for the IC50 (in experiment [7]; with Pseudomonas aeruginosa) were 23000 nM and 2600 nM, respectively.

Consider `C=C[C@@H](O)C#CC#C[C@@H](O)c1cccs1`, for which the EC50 in the experiment with Phytophthora capsici came out at 3.3 µg/mL (≈ 15.1 µM).

`C=C[C@@H](C#CC#C[C@@H](CCCCCCCCC)NCCCC)OC(C)=O`: the Activity with Leishmania donovani [1] is 32%. Moreover, the IC50 in the experiment on Leishmania donovani [2] worked out at 30 nM.

Consider `C=C[C@H](O)C#CC#C[C@@H](CCCCCCCCC)NC(=O)c1ccccc1`, for which, in the experiment on Leishmania donovani [2], the IC50 stood at 5 nM.

In the experiment on Bipolaris sorokiniana, `C=C[C@H](O)C#CC#CC/C=C\CCCCCCCC` had an EC50 of 26 µg/mL (≈ 101 µM).

Turning to `C=C[C@H](O)C#CC#C[C@@H](CCCCCCCCC)NCCCC`, in the experiment with Leishmania donovani [2], the half-inhibitory concentration (IC50) is 3 nM.

In the case of `C=C[C@@H](O)C#CC#C[C@@H](O)/C=C\CCCCCCC` [FALCARINDIOL], the MIC is 16 µg/mL with Staphylococcus aureus [14], 1.6 µg/mL (≈ 6.14 µM) in [4] and 7.8 µg/mL in the experiment on Staphylococcus aureus [15].

Turning to `C#CC(O)/C=C/C(O)CCCC(O)C(O)C#CC(O)C#CCCCC(O)/C=C/CCCCCCCCCCCCCCCCCCCCCC(O)C(O)C#CC(=O)O` (stereo unspecified), in the experiment with Bacillus subtilis [13], the IC50 stood at 25 µg/mL (≈ 30.7 µM).

Take `C=C[C@H](O)C#CC#C[C@H](O)CCCCCCCCC`: the Activity in the experiment with Leishmania donovani [1] was 41%. Besides, the 50% inhibitory concentration (IC50) in the experiment on Plasmodium falciparum was 0.271 µg/mL (≈ 1.03 µM); in the experiment on Leishmania donovani [2], 13 nM. The MIC was 8 µM (≈ 2.1 µg/mL) with Streptococcus pyogenes, 16 µM (≈ 4.2 µg/mL) in the experiment on Enterococcus faecalis and 2 µM (≈ 0.525 µg/mL) with Bacillus subtilis [6].

Regarding `C#CC(O)/C=C/C(O)CCCC(O)C(O)C#CC(O)C#CCCCCC(=O)CCCCC/C=C/C(O)CCCCCCCCCCCCC(O)C(O)C(O)C#CC(=O)O` (stereo unspecified), in the experiment on Bacillus subtilis [13], the concentration for half-maximal inhibition (IC50) came to 48 µg/mL (≈ 57.9 µM).

As for `C=C[C@@H](C#CC#C[C@@H](O)CCCCCCCCC)OC(C)=O`, the IC50 in the experiment with Plasmodium falciparum was found to be 0.27 µg/mL (≈ 0.887 µM); with Leishmania donovani [2] it was 1300 nM.

As to `C=CC(O)C#CC#CC(O)/C=C\CCCCCCCCOC(C)=O` (stereo unspecified), the minimal inhibitory concentration (MIC) was found to be 25 µg/mL (≈ 75.2 µM) in experiment [16] and 1.4 µg/mL (≈ 4.21 µM) in [17].
